Tests used:
[1] = test system: antibodies in sera from SARS patients (sera 1a, 1b, 2, 6, 37, 62, London, SARS-yellow, SARS-green); format: binding, human; design: Binding of serum 6 to linear peptides of protein X1 of SARS-CoV Urbani / Binding of serum 37 to linear peptides of protein X1 of SARS-CoV Urbani / Binding of serum 6 to looped/cyclic peptide (PEPSCAN-ELISA) / Binding of serum 37 to looped/cyclic peptide (PEPSCAN-ELISA) / Binding of serum 37 to looped/cyclic peptides of protein X1 of SARS-CoV Urbani / Binding of serum 6 to linear peptides of protein X2 / Binding of serum 37 to linear peptides of protein X2 / Binding of serum 37 to looped/cyclic peptides of protein X2 of SARS-CoV Urbani / Binding of serum 6 to linear peptides of protein M of SARS-CoV Urbani / Binding of serum 37 to linear peptides of protein M of SARS-CoV Urbani / Binding of serum 6 to looped/cyclic peptides of protein M of SARS-CoV Urbani / Binding of serum 37 to looped/cyclic peptides of protein M of SARS-CoV Urbani / Binding of serum 6 to linear peptides of protein X3 of SARS-CoV Urbani / Binding of serum 37 to linear peptides of protein X3 of SARS-CoV Urbani / Binding of serum 37 to looped/cyclic peptides of protein X3 of SARS-CoV Urbani / Binding of serum 6 to linear peptides of protein X4 of SARS-CoV Urbani / Binding of serum 37 to linear peptides of protein X4 of SARS-CoV Urbani / Binding of serum 37 to looped/cyclic peptides of protein X4 of SARS-CoV Urbani / Binding of serum 6 to linear peptides of protein X5 of SARS-CoV Urbani / Binding of serum 37 to linear peptides of protein X5 of SARS-CoV Urbani / Binding of serum 37 to looped/cyclic peptides of protein X5 of SARS-CoV Urbani / Binding of serum 6 to linear peptides of protein N of SARS-CoV Urbani / Binding of serum 37 to linear peptides of protein N of SARS-CoV Urbani / Binding of serum 6 to linear peptide (PEPSCAN-ELISA) / Binding of serum 1a to looped/cyclic peptides of protein N of SARS-CoV Urbani / Binding of serum 1b to looped/cyclic peptides of protein N of SARS-CoV Urbani / Binding of serum 2 to looped/cyclic peptides of protein N of SARS-CoV Urbani / Binding of serum 6 to looped/cyclic peptides of protein N of SARS-CoV Urbani / Binding of serum 37 to looped/cyclic peptides of protein N of SARS-CoV Urbani / Binding of serum 62 to looped/cyclic peptides of protein N of SARS-CoV Urbani / Binding of serum London to looped/cyclic peptides of protein N of SARS-CoV Urbani / Binding of serum SARS-green to looped/cyclic peptides of protein N of SARS-CoV Urbani: unit not given here
[2] = test system: control sera (pooled serum of ten healthy LUMC hospital workers; commercial negative donor pooled serum from the Dutch bloodbank); format: binding, human; design: Binding of Control serum LUMC to linear peptides / Binding of Control serum Blood-bank to linear peptides / Binding of Control serum LUMC to looped peptides / Binding of Control Serum Blood-Bank to Looped peptides / Binding of Control serum LUMC to linear peptides of the protein M of SARS-CoV Urbani / Binding of Control serum Blood-bank to linear peptides of the protein M of SARS-CoV Urbani / Binding of Control serum LUMC to looped peptides of the protein M of SARS-CoV Urbani / Binding of Control Serum Blood-Bank to Looped peptides of the protein M of SARS-CoV Urbani: unit not given here
[3] = test system: rabbit serum obtained by immunizing a rabbit with the SARS-CoV strain Frankfurt 1; format: binding; design: Binding of a rabbit serum to linear peptides / Binding of a rabbit serum to looped peptides / Rabbit serum linear peptides / Rabbit serum looped peptides / Binding of a rabbit serum to linear peptides of protein N of SARS-CoV Urbani (Rabbit serum linear peptides) / Binding of a rabbit serum to looped/cyclic peptides of protein N of SARS-CoV Urbani (Rabbit serum looped peptides): unit not given here
[4] = test system: recombinant human anti-SARS-CoV antibody 03-018; format: binding; design: Binding of antibody 03-018 to linear peptides of the N protein of SARS-CoV Urbani / Binding of antibody 03-018 to looped/cyclic peptides of the N protein of SARS-CoV Urbani: unit not given here

Row | Sequence | Binding of serum 1a to linear peptides of protein N of SARS-CoV Urbani [1] | Binding of serum 1a to looped/cyclic peptides of protein N of SARS-CoV Urbani [1] | Binding of serum 1b to linear peptides of protein N of SARS-CoV Urbani [1] | Binding of serum 1b to looped/cyclic peptides of protein N of SARS-CoV Urbani [1] | Binding of serum 2 to linear peptides of protein N of SARS-CoV Urbani [1] | Binding of serum 2 to looped/cyclic peptides of protein N of SARS-CoV Urbani [1] | Binding of serum 6 to linear peptides of protein N of SARS-CoV Urbani [1] | Binding of serum 6 to looped/cyclic peptides of protein N of SARS-CoV Urbani [1] | Binding of serum 37 to linear peptides of protein N of SARS-CoV Urbani [1] | Binding of serum 37 to looped/cyclic peptides of protein N of SARS-CoV Urbani [1] | Binding of serum 62 to linear peptides of protein N of SARS-CoV Urbani [1] | Binding of serum 62 to looped/cyclic peptides of protein N of SARS-CoV Urbani [1] | Binding of serum London to linear peptides of protein N of SARS-CoV Urbani [1] | Binding of serum London to looped/cyclic peptides of protein N of SARS-CoV Urbani [1] | Binding of serum SARS-green to looped/cyclic peptides of protein N of SARS-CoV Urbani [1] | Binding of serum SARS-yellow to looped/cyclic peptides of protein N of SARS-CoV Urbani [1] | Binding of a rabbit serum to linear peptides of protein N of SARS-CoV Urbani (Rabbit serum linear peptides) [3] | Binding of a rabbit serum to looped/cyclic peptides of protein N of SARS-CoV Urbani (Rabbit serum looped peptides) [3] | Binding of antibody 03-018 to linear peptides of the N protein of SARS-CoV Urbani [4] | Binding of antibody 03-018 to looped/cyclic peptides of the N protein of SARS-CoV Urbani [4] | further results
1 | KHIDAYKTFPPTEPK | 0.3 | 0.2 | 0.1 | 0.1 | 0.3 | 0.2 | 0.2 | 0.1 | 0.7 | 0.4 | 0.8 | 0.3 | 0.5 | 0.3 | 0.1 | 0.1 | 0.1 | 0.2 | 0.1 | 0.2 | Binding of serum SARS-green to linear peptides of protein N of SARS-CoV Urbani [1]: 0.5; Binding of serum SARS-yellow to linear peptides of protein N of SARS-CoV Urbani [1]: 0.8; Control Serum Blood-Bank Looped peptides [2]: 0.3; Control serum Blood-bank linear peptides [2]: 0.8; Control serum LUMC linear peptides [2]: 0.7; Control serum LUMC looped peptides [2]: 0.3
2 | KKKKTDEAQPLPQRQ | 0.3 | 0.2 | 0.1 | 0.1 | 0.3 | 0.3 | 0.3 | 0.1 | 0.7 | 0.4 | 0.7 | 0.3 | 0.8 | 0.3 | 0.1 | 0.2 | 0.2 | 0.1 | 0.1 | 0.2 | Binding of serum SARS-green to linear peptides of protein N of SARS-CoV Urbani [1]: 0.6; Binding of serum SARS-yellow to linear peptides of protein N of SARS-CoV Urbani [1]: 0.9; Control Serum Blood-Bank Looped peptides [2]: 0.6; Control serum Blood-bank linear peptides [2]: 1.0; Control serum LUMC linear peptides [2]: 0.9; Control serum LUMC looped peptides [2]: 0.4
3 | KKKTDEAQPLPQRQK | 0.2 | 0.2 | 0.1 | 0.1 | 0.2 | 0.1 | 0.7 | 0.0 | 0.9 | 0.3 | 0.6 | 0.2 | 1.1 | 0.3 | 0.0 | 0.0 | 0.2 | 0.1 | 0.1 | 0.2 | Binding of serum SARS-green to linear peptides of protein N of SARS-CoV Urbani [1]: 0.4; Binding of serum SARS-yellow to linear peptides of protein N of SARS-CoV Urbani [1]: 1.0; Control Serum Blood-Bank Looped peptides [2]: 0.4; Control serum Blood-bank linear peptides [2]: 0.9; Control serum LUMC linear peptides [2]: 0.8; Control serum LUMC looped peptides [2]: 0.3
4 | KKSAAEASKKPRQKR |  | 0.2 |  | 0.1 |  | 0.3 |  | 0.2 |  | 0.5 |  | 0.3 |  | 0.4 | 0.2 | 0.3 | 0.4 | 0.8 | 0.1 | 0.2 | Recognition of the peptide by sera of SARS-CoV infected individuals, and form (linear, looped/cyclic) in which it is recognized [1]: recognized in linear form; Binding of Control Serum Blood-Bank to Looped peptides [2]: 0.5; Binding of Control serum Blood-bank to linear peptides [2]: 1.0; Binding of Control serum LUMC to linear peptides [2]: 1.0; Binding of Control serum LUMC to looped peptides [2]: 0.5

Source: patent US20070128217A1 (priority 2003, published 2007)
